Assay results from patent US9695155B2, “Herbicidal substituted pyrimidinyloxy benzene compounds” (E. I. DU PONT DE NEMOURS AND COMPANY, priority 2013, dated 2017).

Legend:
[1] = test system: giant foxtail; test: Test A postemergence; assay type: in vivo, Setaria faberii
Outline: (§1)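 Injury scores run from 0, no effect, to 100, complete control, judged by eye against untreated plants roughly 10 days after treatment. Chemicals carried a surfactant in a non-phytotoxic solvent and went onto loam–sand soil preemergence or onto one- to two-leaf seedlings postemergence.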

[2] = test system: ragweed; test: Test C postemergence; assay type: in vivo, Ambrosia elatior; conditions: for Ragweed plant response rating / Plant response rating, Ragweed: scale 0 to 100 (0 no effect, 100 complete control)
Outline: (§2)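 Greenhouse herbicide screen. Pre: seeded loam/sand, sprayed at planting. Post: 1–4 leaf plants (2–18 cm) in peat-based mix. Formulation: solvent mixture + surfactant, non-phytotoxic. Readout: visual % control vs untreated, 13–15 d; dash = not tested.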

[3] = test system: ragweed; test: Test A preemergence; assay type: in vivo, Ambrosia elatior
Outline: as §1

[4] = test system: johnsongrass; test: Test C postemergence; assay type: in vivo, Sorghum halepense; conditions: for Johnsongrass plant response rating / Plant response rating, Johnsongrass: scale 0 to 100 (0 no effect, 100 complete control)
Outline: as §2

[5] = test system: Heteranthera limosa; test: Test B flooded paddy test; assay type: in vivo; conditions: Flood, 250 g ai/ha; 0 to 100 scale where 0 is no effect and 100 is complete control
Outline: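 Visual ratings on a 0 to 100 scale, where 100 means complete control, compared treated plants with controls after 13 to 15 days in a greenhouse. Treatment went into paddy water 3 cm deep over the soil, applied to plants at the 2-leaf stage.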

[6] = test system: galium; test: Test C postemergence; assay type: in vivo, Galium aparine; conditions: for Galium plant response rating / Plant response rating, Galium: scale 0 to 100 (0 no effect, 100 complete control)
Outline: as §2

[7] = test system: corn; test: Test C preemergence; assay type: in vivo, Zea mays; conditions: for Corn plant response rating: preemergence; for Plant response rating, Corn: Preemergence, scale 0 to 100, 0 no effect, 100 complete control
Outline: as §2

[8] = test system: oilseed rape; test: Test C preemergence; assay type: in vivo, Brassica napus; conditions: for Oilseed Rape plant response rating: preemergence; for Plant response rating, Oilseed Rape: Preemergence, scale 0 to 100, 0 no effect, 100 complete control
Outline: as §2

[9] = test system: giant foxtail; test: Test C preemergence; assay type: in vivo, Setaria faberii; conditions: for Foxtail, Giant plant response rating: preemergence; for Plant response rating, Foxtail, Giant: Preemergence, scale 0 to 100, 0 no effect, 100 complete control
Outline: as §2

[10] = test system: morningglory; test: Test A postemergence; assay type: in vivo, Ipomoea spp.; conditions: 0 to 100 scale where 0 is no effect and 100 is complete control
Outline: as §1

[11] = test system: waterhemp; test: Test C preemergence; assay type: in vivo, Amaranthus rudis; conditions: for Waterhemp plant response rating: preemergence; for Plant response rating, Waterhemp: Preemergence, scale 0 to 100, 0 no effect, 100 complete control
Outline: as §2

[12] = test system: wheat; test: Test A preemergence; assay type: in vivo, Triticum aestivum; conditions: for Wheat plant response rating: 500 g ai/ha
Outline: as §1

[13] = 500 g ai/ha, 0 to 100 scale where 0 is no effect and 100 is complete control
[14] = 31 g ai/ha, postemergence, visual rating, 13 to 15 days
[15] = 125 g ai/ha, postemergence, visual rating
[16] = Postemergence, 62 g ai/ha, 13 to 15 days
[17] = 125 g ai/ha, 0 to 100 scale where 0 is no effect and 100 is complete control
[18] = 16 g ai/ha, postemergence, 0 is no effect, 100 is complete control
[19] = 125 g ai/ha, scale 0 (no effect) to 100 (complete control)
[20] = 250 g ai/ha, scale 0 (no effect) to 100 (complete control)
[21] = 0 to 100 scale where 0 is no effect and 100 is complete control
[22] = 16 g ai/ha, scale 0 to 100 (0 no effect, 100 complete control)
[23] = 62 g ai/ha, scale 0 (no effect) to 100 (complete control)
[24] = Postemergence, 31 g ai/ha, 13 to 15 days
[25] = 16 g ai/ha, postemergence, visual rating, 13 to 15 days

For N#Cc1cccc(Oc2ncc(Cl)cn2)c1-n1cc(-n2ccc(C(F)(F)F)n2)cn1 [Compound 284], the “Plant response rating, Foxtail, Giant” value ([1]; 125 g ai/ha, 0 to 100 scale, 0 no effect, 100 complete control) was 90, the “Plant response rating, Foxtail, Giant” value [1, 13] was 90 and the “Ragweed plant response rating” value [2, 14] was 55. For the same compound, the “Plant response rating, Ragweed” value [2, 15] was 50, the “Plant response rating (0 to 100), Ragweed” value ([2]; 250 g ai/ha, postemergence) was 80 and the “Plant response rating, Ragweed” value [2, 16] was 55. The “Ragweed plant response rating (0 to 100 scale)” value ([3]; 125 g ai/ha) was 0, the “Ragweed plant response rating” value [3, 13] was 0 and the “Johnsongrass plant response rating” value [4, 14] was 5. For the same compound, the “Plant response rating, Johnsongrass” value [4, 15] was 20, the “Plant response rating (0 to 100), Johnsongrass” value ([4]; 250 g ai/ha, postemergence) was 20 and the “Plant response rating, Johnsongrass” value [4, 16] was 5. For the same compound, the “Plant response rating, Ducksalad” value [5] was 80, the “Galium plant response rating” value [6, 14] was 100 and the “Plant response rating, Galium” value [6, 15] was 85. The “Plant response rating (0 to 100), Galium” value ([6]; 250 g ai/ha, postemergence) was 100 and the “Plant response rating, Galium” value [6, 16] was 85.
FCc1cccc(Oc2ncc(Br)cn2)c1-n1cc(C(F)(F)F)cn1 [Compound 120] was tested, and the “Plant response rating, Foxtail, Giant” value ([1]; 31 g ai/ha, 0 to 100 scale, 0 no effect, 100 complete control) was 20, the “Plant response rating, Foxtail, Giant” value [1, 17] was 70 and the “Plant response rating (0 to 100), Ragweed” value [2, 18] was 10. For the same compound, the “Plant response rating, Ragweed” value [2, 15] was 60, the “Plant response rating, Ragweed” value ([2]; Postemergence, 62 g ai/ha) was 25 and the “Ragweed plant response rating (0 to 100 scale)” value ([3]; 31 g ai/ha) was 0. The “Plant response rating, Ragweed” value [3, 17] was 0, the “Plant response rating (0 to 100), Johnsongrass” value [4, 18] was 0 and the “Plant response rating, Johnsongrass” value [4, 15] was 10. The “Plant response rating, Johnsongrass” value ([4]; Postemergence, 62 g ai/ha) was 5, the “Plant response rating, Ducksalad” value [5] was 95 and the “Plant response rating (0 to 100), Galium” value [6, 18] was 30. For the same compound, the “Plant response rating, Galium” value [6, 15] was 60 and the “Plant response rating, Galium” value ([6]; Postemergence, 62 g ai/ha) was 30.
With N#Cc1cccc(Oc2ncc(Cl)cn2)c1-n1cc(I)cn1 [Compound 204] the “Foxtail, Giant plant response rating” value [1, 17] was 80, the “Plant response rating, Foxtail, Giant” value [1, 13] was 100 and the “Ragweed plant response rating” value [2, 14] was 25. For the same compound, the “Plant response rating, Ragweed” value [2, 15] was 35, the “Plant response rating (0 to 100), Ragweed” value ([2]; 250 g ai/ha, postemergence) was 75 and the “Plant response rating, Ragweed” value [2, 16] was 40. The “Corn plant response rating” value [7, 19] was 5, the “Corn plant response rating” value [7, 20] was 35 and the “Plant response rating, Corn” value ([7]; 62 g ai/ha) was 0. For the same compound, the “Johnsongrass plant response rating” value [4, 14] was 5, the “Plant response rating, Johnsongrass” value [4, 15] was 10 and the “Plant response rating (0 to 100), Johnsongrass” value ([4]; 250 g ai/ha, postemergence) was 30. For the same compound, the “Plant response rating, Johnsongrass” value [4, 16] was 5, the “Oilseed Rape plant response rating” value [8, 19] was 98 and the “Oilseed Rape plant response rating” value [8, 20] was 100. The “Plant response rating, Oilseed Rape” value ([8]; 62 g ai/ha) was 95, the “Foxtail, Giant plant response rating” value [9, 19] was 100 and the “Foxtail, Giant plant response rating” value [9, 20] was 100. The “Plant response rating, Foxtail, Giant” value ([9]; 62 g ai/ha) was 98, the “Plant response rating, Ducksalad” value [5] was 70 and the “Morningglory plant response rating” value ([10]; 125 g ai/ha) was 80. For the same compound, the “Plant response rating, Morningglory” value ([10]; 500 g ai/ha) was 100, the “Waterhemp plant response rating” value [11, 19] was 100 and the “Waterhemp plant response rating” value [11, 20] was 98. The “Plant response rating, Waterhemp” value ([11]; 62 g ai/ha) was 100, the “Galium plant response rating” value [6, 14] was 70 and the “Plant response rating, Galium” value [6, 15] was 75. For the same compound, the “Plant response rating (0 to 100), Galium” value ([6]; 250 g ai/ha, postemergence) was 100, the “Plant response rating, Galium” value [6, 16] was 75 and the “Wheat plant response rating (0 to 100 scale)” value ([12]; 125 g ai/ha) was 40. The “Wheat plant response rating” value [12, 21] was 60.
For FC(F)(F)c1cnn(-c2c(Cl)cccc2Oc2ncc(Cl)cn2)c1 [Compound 167], the “Foxtail, Giant plant response rating” value [1, 17] was 90, the “Plant response rating, Foxtail, Giant” value [1, 13] was 90 and the “Plant response rating (0 to 100), Ragweed” value [2, 18] was 10. The “Ragweed plant response rating” value [2, 14] was 10, the “Plant response rating, Ragweed” value [2, 15] was 55 and the “Plant response rating, Ragweed” value ([2]; Postemergence, 62 g ai/ha) was 30. The “Corn plant response rating” value [7, 22] was 0, the “Corn plant response rating” value [7, 23] was 25 and the “Corn plant response rating” value [7, 19] was 60. The “Plant response rating, Corn” value ([7]; 31 g ai/ha) was 5, the “Plant response rating (0 to 100), Johnsongrass” value [4, 18] was 5 and the “Johnsongrass plant response rating” value [4, 14] was 15. The “Plant response rating, Johnsongrass” value [4, 15] was 25, the “Plant response rating, Johnsongrass” value ([4]; Postemergence, 62 g ai/ha) was 15 and the “Oilseed Rape plant response rating” value [8, 22] was 80. For the same compound, the “Oilseed Rape plant response rating” value [8, 23] was 90, the “Oilseed Rape plant response rating” value [8, 19] was 98 and the “Foxtail, Giant plant response rating” value [9, 22] was 35. The “Foxtail, Giant plant response rating” value [9, 23] was 100, the “Foxtail, Giant plant response rating” value [9, 19] was 100 and the “Plant response rating, Foxtail, Giant” value ([9]; 31 g ai/ha) was 95. The “Plant response rating, Ducksalad” value [5] was 100, the “Morningglory plant response rating” value ([10]; 125 g ai/ha) was 80 and the “Plant response rating, Morningglory” value ([10]; 500 g ai/ha) was 100. The “Waterhemp plant response rating” value [11, 22] was 100, the “Waterhemp plant response rating” value [11, 23] was 100 and the “Waterhemp plant response rating” value [11, 19] was 100. For the same compound, the “Plant response rating (0 to 100), Galium” value [6, 18] was 70, the “Galium plant response rating” value [6, 14] was 70 and the “Plant response rating, Galium” value [6, 15] was 90. For the same compound, the “Plant response rating, Galium” value ([6]; Postemergence, 62 g ai/ha) was 70, the “Wheat plant response rating (0 to 100 scale)” value ([12]; 125 g ai/ha) was 0 and the “Wheat plant response rating” value [12, 21] was 50.
With CCOc1cnn(-c2c(C#N)cccc2Oc2ncc(Cl)cn2)c1 [Compound 92] the “Plant response rating, Foxtail, Giant” value [1, 17] was 80, the “Plant response rating, Foxtail, Giant” value [1, 13] was 90 and the “Plant response rating (0 to 100), Ragweed” value ([2]; 125 g ai/ha, postemergence) was 55. For the same compound, the “Plant response rating, Ragweed” value [2, 24] was 40, the “Plant response rating, Ragweed” value ([2]; Postemergence, 62 g ai/ha) was 50 and the “Corn plant response rating” value [7, 22] was 0. For the same compound, the “Corn plant response rating” value [7, 23] was 5, the “Corn plant response rating” value [7, 19] was 65 and the “Plant response rating, Corn” value ([7]; 31 g ai/ha) was 0. For the same compound, the “Johnsongrass plant response rating” value [4, 25] was 0, the “Plant response rating (0 to 100), Johnsongrass” value ([4]; 125 g ai/ha, postemergence) was 5 and the “Plant response rating, Johnsongrass” value [4, 24] was 0. The “Plant response rating, Johnsongrass” value ([4]; Postemergence, 62 g ai/ha) was 5, the “Oilseed Rape plant response rating” value [8, 22] was 80 and the “Oilseed Rape plant response rating” value [8, 23] was 85. For the same compound, the “Oilseed Rape plant response rating” value [8, 19] was 95, the “Plant response rating, Oilseed Rape” value ([8]; 31 g ai/ha) was 80 and the “Foxtail, Giant plant response rating” value [9, 22] was 30. The “Foxtail, Giant plant response rating” value [9, 23] was 100, the “Foxtail, Giant plant response rating” value [9, 19] was 100 and the “Plant response rating, Foxtail, Giant” value ([9]; 31 g ai/ha) was 98. The “Plant response rating, Ducksalad” value [5] was 95, the “Plant response rating, Morningglory” value ([10]; 125 g ai/ha) was 100 and the “Plant response rating, Morningglory” value ([10]; 500 g ai/ha) was 100. For the same compound, the “Waterhemp plant response rating” value [11, 22] was 95, the “Waterhemp plant response rating” value [11, 23] was 100 and the “Waterhemp plant response rating” value [11, 19] was 100. For the same compound, the “Plant response rating, Waterhemp” value ([11]; 31 g ai/ha) was 98, the “Galium plant response rating” value [6, 25] was 70 and the “Plant response rating (0 to 100), Galium” value ([6]; 125 g ai/ha, postemergence) was 80. The “Plant response rating, Galium” value [6, 24] was 80, the “Plant response rating, Galium” value ([6]; Postemergence, 62 g ai/ha) was 65 and the “Plant response rating, Wheat” value [12, 17] was 0.
